Molecular target: Amyloid-beta precursor protein (Homo sapiens, UniProt P05067)
Assay: Displacement of […] from Abeta peptide plaques in Alzheimer's disease patient brain

Chain of Amyloid-beta precursor protein (P05067 whole entry): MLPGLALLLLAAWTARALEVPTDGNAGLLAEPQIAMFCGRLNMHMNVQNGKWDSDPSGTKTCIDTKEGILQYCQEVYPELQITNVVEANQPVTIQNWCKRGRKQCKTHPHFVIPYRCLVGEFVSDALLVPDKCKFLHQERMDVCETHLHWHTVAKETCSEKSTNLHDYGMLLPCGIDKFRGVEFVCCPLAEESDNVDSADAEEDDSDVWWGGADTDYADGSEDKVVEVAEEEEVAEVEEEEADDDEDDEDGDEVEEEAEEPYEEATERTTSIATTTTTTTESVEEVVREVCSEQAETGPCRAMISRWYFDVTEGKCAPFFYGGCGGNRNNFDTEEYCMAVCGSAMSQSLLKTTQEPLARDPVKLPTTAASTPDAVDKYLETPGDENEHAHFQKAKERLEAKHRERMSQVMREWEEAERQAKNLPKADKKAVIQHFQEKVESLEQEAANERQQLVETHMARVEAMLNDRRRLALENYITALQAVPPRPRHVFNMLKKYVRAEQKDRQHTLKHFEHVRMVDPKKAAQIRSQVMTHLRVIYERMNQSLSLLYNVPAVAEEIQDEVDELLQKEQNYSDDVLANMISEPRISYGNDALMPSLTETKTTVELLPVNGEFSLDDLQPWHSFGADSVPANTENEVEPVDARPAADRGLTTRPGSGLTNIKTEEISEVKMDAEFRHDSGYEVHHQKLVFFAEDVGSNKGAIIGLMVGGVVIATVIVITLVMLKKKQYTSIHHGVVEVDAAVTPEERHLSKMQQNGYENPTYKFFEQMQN

Row | Ki [nM] | Structure (SMILES)
1 | 9 | CNc1ccc(/C=C/c2cnc(OCCOCCOCCF)c(I)c2)cc1
2 | 14.2 | Oc1ccc(/C=C/c2cnc(OCCOCCOCCF)c(Br)c2)cc1
3 | 7.5 | CN(C)c1ccc(/C=C/c2cnc(OCCOCCOCCF)c(I)c2)cc1

More lines, now with the values behind:

Row | Structure (SMILES) | Ki [nM]
4 | OCCOc1ncc(C=Cc2ccc(O)cc2)cc1Br | 6.8
5 | CN(C)c1ccc(/C=C/c2cnc(OCCO)c(I)c2)cc1 | 7.5
6 | CNc1ccc(/C=C/c2cnc(OCCO)c(I)c2)cc1 | 8.5
7 | CNc1ccc(/C=C/c2cnc(OCCO)c(Br)c2)cc1 | 5
8 | CN(C)c1ccc(/C=C/c2cnc(OCCOCCOCCF)c(Br)c2)cc1 | 6.8
